Active and inactive are the calls of the source.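 Rule for the calls: active = EC50 of 30 microM or lower and a span of response of at least a set limit; inactive = the rest.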
Biological target: Cdc42 activated mutant (human), GST fusion
Experiment: constitutively active Cdc42 fluorescent GTP binding inhibition – biochemical, oxadiazole analogs, multiplex bead flow cytometry, Ki, SAR follow-up (AID 2009)
Settings: Bead-based flow cytometry, Bodipy-FL-GTP binding; for Ki: measured here: Ki calculated from EC50

SMILES | EC50 | Ki [nM]
COc1ccc(-c2ccc(CCC(=O)N3CCN(c4cc(C)ccc4C)CC3)[nH]2)cc1 | > 30000 nM (inactive) | –
COc1ccc(-c2noc(CCC(=O)N3CCN(c4ccccc4)CC3)n2)cc1 | inactive | 110
Cc1ccc(C)c(N2CCN(C(=O)CCc3nc(-c4cccc(F)c4)no3)CC2)c1 | 1840 nM | 280
COc1ccc(-c2noc(CCC(=O)N3CCN(c4cccc(Cl)c4)CC3)n2)cc1 | 7130 nM | 1100
COc1ccc(-c2ccc(CCC(=O)N3CCN(c4cc(C)ccc4C)CC3)s2)cc1 | 2940 nM | 460
COc1ccc(-c2noc(CCCCC(=O)N3CCN(c4cc(C)ccc4C)CC3)n2)cc1 | 17400 nM | 2690
COc1ccc(-c2noc(CCC(=O)N3CCN(c4ccc(C(F)(F)F)cc4)CC3)n2)cc1 | > 30000 nM (inactive) | –
Cc1ccc(C)c(N2CCN(C(=O)CCc3nc(-c4cccc(Br)c4)no3)CC2)c1 | 2340 nM | 360
Cc1ccc(-c2noc(CCC(=O)N3CCN(c4cc(C)ccc4C)CC3)n2)cc1 | 3030 nM | 470
Cc1ccc(C)c(N2CCN(C(=O)CCc3nc(-c4ccc(C(F)(F)F)cc4)no3)CC2)c1 | 4980 nM | 770
Cc1cccc(-c2noc(CCC(=O)N3CCN(c4cc(C)ccc4C)CC3)n2)c1 | 1850 nM | 290
COc1ccc(-c2noc(CCC(=O)N3CCN(c4cccc(C)c4C)CC3)n2)cc1 | 1380 nM | 210
Cc1ccc(C)c(N2CCN(C(=O)CCc3nc(-c4ccccc4Cl)no3)CC2)c1 | 951 nM | 150
Cc1ccc(C)c(N2CCN(C(=O)CCc3nc(-c4ccccc4C(F)(F)F)no3)CC2)c1 | 1690 nM | 260
COc1ccc(-c2cc(CCC(=O)N3CCN(c4cc(C)ccc4C)CC3)[nH]n2)cc1 | > 30000 nM (inactive) | –
Cc1ccc(C)c(N2CCN(C(=O)CCc3nc(-c4ccccc4)no3)CC2)c1 | 621 nM | 100
COc1ccc(-c2noc(CCCC(=O)N3CCN(c4cc(C)ccc4C)CC3)n2)cc1 | 5160 nM | 800
COc1ccc(-c2noc(CCC(=O)N3CCN(c4cc(C)ccc4C)CC3)n2)cc1 | 2280 nM | 350
Cc1ccc(C)c(N2CCN(C(=O)CCc3nc(-c4ccccc4C)no3)CC2)c1 | 1540 nM | 240
COc1ccc(-c2noc(CCC(=O)N3CCN(c4ccccc4F)CC3)n2)cc1 | 1070 nM | 170
Cc1ccc(C)c(N2CCN(C(=O)CCc3nc(-c4ccccc4Br)no3)CC2)c1 | 1190 nM | 180
COc1ccc(-c2noc(CCC(=O)N3CCN(c4ccccc4Br)CC3)n2)cc1 | 1430 nM | 220
Cc1ccc(C)c(N2CCN(C(=O)CCc3nc(-c4ccc(Br)cc4)no3)CC2)c1 | 2660 nM | 410
COc1ccc(-c2noc(CCC(=O)N3CCN(c4ccccc4OC)CC3)n2)cc1 | 3080 nM | 480
Cc1ccc(C)c(N2CCN(C(=O)CCc3nc(-c4ccc(Cl)cc4)no3)CC2)c1 | 1660 nM | 260
COc1ccc(-c2noc(CCC(=O)N3CCN(c4cccc(OC)c4)CC3)n2)cc1 | inactive | 760

SMILES | EC50 | Ki [nM]
Cc1ccc(C)c(N2CCN(C(=O)CCc3nc(-c4ccc(F)cc4)no3)CC2)c1 | 665 nM | 100
COc1ccc(-c2noc(CCC(=O)N3CCN(c4ccc(Br)cc4)CC3)n2)cc1 | > 30000 nM (inactive) | –
Cc1ccc(C)c(N2CCN(C(=O)CCc3nc(-c4cccc(C(F)(F)F)c4)no3)CC2)c1 | 2670 nM | 410
COc1ccc(-c2cccc(CCC(=O)N3CCN(c4cc(C)ccc4C)CC3)c2)cc1 | 4050 nM | 630
COc1ccc(-c2noc(CC(=O)N3CCN(c4cc(C)ccc4C)CC3)n2)cc1 | inactive | 1770
COc1ccc(-c2noc(CCC(=O)N3CCN(c4ccc(C)cc4)CC3)n2)cc1 | inactive | 190
COc1ccc(-c2noc(CCC(=O)N3CCN(c4ccc(Cl)cc4)CC3)n2)cc1 | inactive | 20
COc1ccc(-c2coc(CCC(=O)N3CCN(c4cc(C)ccc4C)CC3)n2)cc1 | 1680 nM | 260
COc1ccc(-c2noc(CCC(=O)N3CCN(c4cccc(F)c4)CC3)n2)cc1 | inactive | 170
COc1ccc(-c2noc(CCC(=O)N3CCN(c4ccccc4Cl)CC3)n2)cc1 | 2030 nM | 310
COc1ccccc1-c1noc(CCC(=O)N2CCN(c3cc(C)ccc3C)CC2)n1 | 4910 nM | 760
COc1ccc(-c2noc(CCC(=O)N3CCN(c4cccc(C(F)(F)F)c4)CC3)n2)cc1 | > 30000 nM (inactive) | –
COc1ccc(-c2noc(CCC(=O)N3CCN(c4ccccc4C(F)(F)F)CC3)n2)cc1 | 2000 nM | 310
COc1cccc(-c2noc(CCC(=O)N3CCN(c4cc(C)ccc4C)CC3)n2)c1 | 3680 nM | 570
COc1ccc(-c2noc(CCC(=O)N3CCN(c4cccc(C)c4)CC3)n2)cc1 | 2340 nM | 360
COc1ccc(-c2cc(CCC(=O)N3CCN(c4cc(C)ccc4C)CC3)on2)cc1 | 1450 nM | 220
Cc1ccc(C)c(N2CCN(C(=O)CCc3nc(-c4cccc(Cl)c4)no3)CC2)c1 | 3910 nM | 600
COc1ccc(-c2noc(CCC(=O)N3CCC(c4cc(C)ccc4C)CC3)n2)cc1 | 1630 nM | 250
COc1ccc(-c2noc(CCC(=O)N3CCN(c4cccc(Br)c4)CC3)n2)cc1 | > 30000 nM (inactive) | –
Cc1ccc(C)c(N2CCN(C(=O)CCc3nc(-c4ccccc4F)no3)CC2)c1 | 1510 nM | 230
COc1ccc(-c2ccc(CCC(=O)N3CCN(c4cc(C)ccc4C)CC3)o2)cc1 | > 30000 nM (inactive) | –
COc1ccc(-c2noc(CCC(=O)N3CCN(c4ccc(F)cc4)CC3)n2)cc1 | inactive | 140
Cc1ccc(C)c(N2CCN(C(=O)CCc3nc(-c4ccc(N(C)C)cc4)no3)CC2)c1 | 1660 nM | 260
COc1ccc(-c2noc(CCC(=O)N3CCN(c4ccccc4C)CC3)n2)cc1 | 1050 nM | 160
COc1ccc(-c2noc(CCC(=O)N3CCN(c4ccc(OC)cc4)CC3)n2)cc1 | 700 nM | 110

Reference: PubChem BioAssay AID2009 (NMMLSC, 2009)
